Calls of active or inactive are those of the source. The rule behind the calls is not given here.
Experiments:
[1] = tested on: HCT-15; test: Growth of human HCT15 cells at 0.3 uM after 48 hrs by SRB assay; details: HCT-15, 48 h
[2] = tested on: NUGC-3; test: Growth of human NUGC3 cells at 1 uM after 48 hrs by SRB assay; details: NUGC-3, 48 h
[3] = tested on: MDA-MB-231; test: Growth of human MDA-MB-231 cells at 3 uM after 48 hrs by SRB assay; values are per cent of control; details: MDA-MB-231, 48 h
[4] = tested on: ACHN; test: Growth of human ACHN cells at 0.1 uM after 48 hrs by SRB assay
[5] = tested on: PC-3; test: Growth inhibition of human PC3 cells at 1 uM after 48 hrs by SRB assay; values are per cent of control; details: PC-3, 48 h
[6] = tested on: NUGC-3; test: Growth inhibition of human NUGC3 cells after 48 hrs by SRB assay; type: functional; details: NUGC-3, 48 h
[7] = tested on: ACHN; test: Growth of human ACHN cells at 10 uM after 48 hrs by SRB assay
[8] = tested on: ACHN; test: Growth of human ACHN cells at 0.3 uM after 48 hrs by SRB assay
[9] = tested on: HCT-15; test: Growth inhibition of human HCT15 cells after 48 hrs by SRB assay; type: functional; details: HCT-15, 48 h
[10] = tested on: PC-3; test: Growth of human PC3 cells at 10 uM after 48 hrs by SRB assay; details: PC-3, 48 h
[11] = molecular target: Rho-related GTP-binding protein RhoB (Homo sapiens) (UniProt P62745); test: Transactivation of RhoB (unknown origin) transfected in human HeLa cells at 5 uM measured over 10 secs by dual luciferase reporter gene assay; type: cell-based
[12] = tested on: MDA-MB-231; test: Growth inhibition of human MDA-MB-231 cells after 48 hrs by SRB assay; type: functional; details: MDA-MB-231, 48 h
[13] = tested on: HCT-15; test: Growth inhibition of human HCT15 cells at 10 uM after 48 hrs by SRB assay; values are per cent of control; details: HCT-15, 48 h
[14] = tested on: PC-3; test: Growth inhibition of human PC3 cells at 3 uM after 48 hrs by SRB assay; values are per cent of control; details: PC-3, 48 h
[15] = tested on: ACHN; test: Growth inhibition of human ACHN cells at 1 uM after 48 hrs by SRB assay; values are per cent of control
[16] = tested on: NUGC-3; test: Growth inhibition of human NUGC3 cells at 10 uM after 48 hrs by SRB assay; values are per cent of control; details: NUGC-3, 48 h
[17] = tested on: HCT-15; test: Growth inhibition of human HCT15 cells at 1 uM after 48 hrs by SRB assay; values are per cent of control; details: HCT-15, 48 h
[18] = tested on: ACHN; test: Growth inhibition of human ACHN cells after 48 hrs by SRB assay; type: functional
[19] = tested on: NUGC-3; test: Growth of human NUGC3 cells at 0.1 uM after 48 hrs by SRB assay; details: NUGC-3, 48 h
[20] = tested on: NCI-H23; test: Growth inhibition of human NCI-H23 cells after 48 hrs by SRB assay; type: functional; details: NCI-H23, 48 h
[21] = tested on: MDA-MB-231; test: Growth of human MDA-MB-231 cells at 10 uM after 48 hrs by SRB assay; details: MDA-MB-231, 48 h
[22] = tested on: NCI-H23; test: Growth of human NCI-H23 cells at 0.3 uM after 48 hrs by SRB assay; details: NCI-H23, 48 h
[23] = tested on: MDA-MB-231; test: Growth of human MDA-MB-231 cells at 1 uM after 48 hrs by SRB assay; details: MDA-MB-231, 48 h
[24] = tested on: MDA-MB-231; test: Growth inhibition of human MDA-MB-231 cells at 0.3 uM after 48 hrs by SRB assay; values are per cent of control; details: MDA-MB-231, 48 h
[25] = tested on: ACHN; test: Growth inhibition of human ACHN cells at 3 uM after 48 hrs by SRB assay; values are per cent of control
[26] = tested on: NCI-H23; test: Growth inhibition of human NCI-H23 cells at 1 uM after 48 hrs by SRB assay; values are per cent of control; details: NCI-H23, 48 h
[27] = tested on: NCI-H23; test: Growth of human NCI-H23 cells at 10 uM after 48 hrs by SRB assay; details: NCI-H23, 48 h
[28] = tested on: NCI-H23; test: Growth inhibition of human NCI-H23 cells at 0.1 uM after 48 hrs by SRB assay; values are per cent of control; details: NCI-H23, 48 h
[29] = tested on: HCT-15; test: Growth of human HCT15 cells at 3 uM after 48 hrs by SRB assay; details: HCT-15, 48 h
[30] = tested on: MDA-MB-231; test: Growth of human MDA-MB-231 cells at 0.1 uM after 48 hrs by SRB assay; details: MDA-MB-231, 48 h
[31] = tested on: PC-3; test: Growth inhibition of human PC3 cells after 48 hrs by SRB assay; type: functional; details: PC-3, 48 h
[32] = tested on: NCI-H23; test: Growth inhibition of human NCI-H23 cells at 3 uM after 48 hrs by SRB assay; values are per cent of control; details: NCI-H23, 48 h
[33] = tested on: NUGC-3; test: Growth inhibition of human NUGC3 cells at 3 uM after 48 hrs by SRB assay; values are per cent of control; details: NUGC-3, 48 h
[34] = tested on: NUGC-3; test: Growth of human NUGC3 cells at 0.3 uM after 48 hrs by SRB assay; details: NUGC-3, 48 h
[35] = tested on: PC-3; test: Growth inhibition of human PC3 cells at 0.1 uM after 48 hrs by SRB assay; values are per cent of control; details: PC-3, 48 h
[36] = tested on: PC-3; test: Growth inhibition of human PC3 cells at 0.3 uM after 48 hrs by SRB assay; values are per cent of control; details: PC-3, 48 h
[37] = tested on: HCT-15; test: Growth inhibition of human HCT15 cells at 0.1 uM after 48 hrs by SRB assay; values are per cent of control; details: HCT-15, 48 h

Rho-related GTP-binding protein RhoB (Homo sapiens), sequence (P62745 whole entry): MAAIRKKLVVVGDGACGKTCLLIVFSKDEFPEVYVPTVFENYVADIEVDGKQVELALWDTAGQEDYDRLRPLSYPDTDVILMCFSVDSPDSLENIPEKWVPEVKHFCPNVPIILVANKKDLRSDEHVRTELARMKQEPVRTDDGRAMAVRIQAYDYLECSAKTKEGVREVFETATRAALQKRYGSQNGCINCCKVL

| GI50 [9] | Activity [11] | GI50 [12] | GI50 [18] | GI50 [20] | SMILES | growth, % of control at 0.3 µM [1] | growth, % of control at 1 µM [2] | growth, % of control at 3 µM [3] | growth, % of control at 0.1 µM [4] | growth, % of control at 1 µM [5] | GI50 [6] | growth, % of control at 10 µM [7] | growth, % of control at 0.3 µM [8] | growth, % of control at 10 µM [10] | growth, % of control at 10 µM [13] | growth, % of control at 3 µM [14] | growth, % of control at 1 µM [15] | growth, % of control at 10 µM [16] | growth, % of control at 1 µM [17] | growth, % of control at 0.1 µM [19] | other results |
| --- | --- | --- | --- | --- | --- | --- | --- | --- | --- | --- | --- | --- | --- | --- | --- | --- | --- | --- | --- | --- | --- |
| 1810 nM | Active | 1340 nM | 1450 nM | 450 nM | C=CC[N+](CC)(CC)CCN(C)S(=O)(=O)CCCCCCCCCCCCCCCC | 90.7% | 34.9% | 42.9% | 85.9% | 73.3% | 390 nM | -11.8% | 88.2% | -13.2% | -7% | 10% | 82.2% | -20.2% | 84% | 89.1% | growth, % of control at 10 µM [21]: 9.2%; growth, % of control at 0.3 µM [22]: 78.4%; growth, % of control at 1 µM [23]: 80.6%; growth, % of control at 0.3 µM [24]: 97%; growth, % of control at 3 µM [25]: 50.4%; growth, % of control at 1 µM [26]: 51.3%; growth, % of control at 10 µM [27]: -7.6%; growth, % of control at 0.1 µM [28]: 77.9%; growth, % of control at 3 µM [29]: 66.6%; growth, % of control at 0.1 µM [30]: 94.8%; GI50 [31]: 760 nM; growth, % of control at 3 µM [32]: 16.9%; growth, % of control at 3 µM [33]: 4.9%; growth, % of control at 0.3 µM [34]: 86.6%; growth, % of control at 0.1 µM [35]: 88.2%; growth, % of control at 0.3 µM [36]: 91%; growth, % of control at 0.1 µM [37]: 87.9% |
| 860 nM | Active | 1390 nM | 1890 nM | 1560 nM | CCCCCCCCCCCCCCCCS(=O)(=O)NCCC[N+](C)(C)C | 93% | 60.2% | 41% | 117% | 64.6% | 560 nM | -7.7% | 119% | -32.7% | 1.7% | -1% | 112% | -37.7% | 73.6% | 103% | growth, % of control at 10 µM [21]: 12.9%; growth, % of control at 0.3 µM [22]: 93.7%; growth, % of control at 1 µM [23]: 87%; growth, % of control at 0.3 µM [24]: 108%; growth, % of control at 3 µM [25]: 80.3%; growth, % of control at 1 µM [26]: 88.6%; growth, % of control at 10 µM [27]: -23.1%; growth, % of control at 0.1 µM [28]: 86.7%; growth, % of control at 3 µM [29]: 22.4%; growth, % of control at 0.1 µM [30]: 103%; GI50 [31]: 580 nM; growth, % of control at 3 µM [32]: 47.1%; growth, % of control at 3 µM [33]: -5.5%; growth, % of control at 0.3 µM [34]: 93.6%; growth, % of control at 0.1 µM [35]: 100%; growth, % of control at 0.3 µM [36]: 102%; growth, % of control at 0.1 µM [37]: 96% |
